Test results: patent US10294202B2, “Pyrrolidinones as herbicides” (FMC Corporation, priority 2013, dated 2019)

Tests used:
[1] = test system: barnyardgrass; experiment: Test A pre-/postemergence herbicide test; type: in vivo, Echinochloa crus-galli
Method in brief: (§1)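 Approximately 10 days after treatment in the greenhouse, plants were compared with untreated controls and given a 0–100 visual injury rating. Applications: preemergence directed soil spray; postemergence on 2–10 cm plants at the one- to two-leaf stage.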

[2] = test system: ryegrass, Italian; experiment: Test A pre-/postemergence herbicide test; type: in vivo, Lolium multiflorum
Method in brief: as §1

[3] = test system: pigweed; experiment: Test A pre-/postemergence herbicide test; type: in vivo, Amaranthus retroflexus
Method in brief: as §1

[4] = test system: corn; experiment: Test C pre-/postemergence herbicide test; type: in vivo, Zea mays
Method in brief: (§2)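 Plants grown and held in a greenhouse for 13 to 15 days post-spray, then rated 0–100 by visual comparison with controls. Pre treatments targeted seeds in loam and sand; post treatments targeted 1- to 4-leaf plants in peat-based potting medium.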

[5] = test system: nutsedge, yellow; experiment: Test C pre-/postemergence herbicide test; type: in vivo, Cyperus esculentus
Method in brief: as §2

[6] = test system: ragweed; experiment: Test C pre-/postemergence herbicide test; type: in vivo, Ambrosia elatior
Method in brief: as §2

[7] = test system: kochia; experiment: Test C pre-/postemergence herbicide test; type: in vivo, Kochia scoparia; details: Postemergence
Method in brief: as §2

[8] = test system: oat, wild; experiment: Test C pre-/postemergence herbicide test; type: in vivo, Avena fatua; details: Postemergence
Method in brief: as §2

[9] = test system: chickweed; experiment: Test C postemergence herbicide test; type: in vivo, Stellaria media
Method in brief: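 Response is scored visually on a 0–100 scale (100 = complete control) relative to untreated controls, 13 to 15 days after treatment. Plants were sprayed postemergence at the 1- to 4-leaf stage (2 to 18 cm tall) and kept in a greenhouse.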

[10] = Postemergence, 125 g ai/ha, 0 to 100 scale, 0 is no effect, 100 is complete control
[11] = Postemergence, 500 g ai/ha, 0 to 100 scale (0 no effect, 100 complete control)
[12] = Preemergence, 125 g ai/ha, 0 to 100 scale where 0 is no effect and 100 is complete control
[13] = preemergence, 500 g ai/ha, 0 to 100 scale, 0 is no effect and 100 is complete control
[14] = Postemergence, 125 g ai/ha, visual rating on 0 to 100 scale (0 no effect, 100 complete control), approx. 10 days
[15] = Postemergence, 31 g ai/ha, scale 0 to 100 (0 no effect, 100 complete control)
[16] = Postemergence, 62 g ai/ha, scale 0 (no effect) to 100 (complete control)
[17] = Postemergence, 125 g ai/ha, scale 0 to 100 (0 no effect, 100 complete control)
[18] = Postemergence, 250 g ai/ha, scale 0 to 100 (0 no effect, 100 complete control)
[19] = Preemergence, 31 g ai/ha, scale 0 to 100, 0 is no effect and 100 is complete control
[20] = Preemergence, 62 g ai/ha, scale 0 to 100 (0 no effect, 100 complete control)
[21] = Preemergence, 125 g ai/ha, scale 0 to 100 (0 no effect, 100 complete control)
[22] = 31 g ai/ha, scale 0 to 100 (0 no effect, 100 complete control)
[23] = 62 g ai/ha, scale 0 (no effect) to 100 (complete control)
[24] = 125 g ai/ha, scale 0 to 100 (0 no effect, 100 complete control)
[25] = 250 g ai/ha, scale 0 to 100 (0 no effect, 100 complete control)

O=C1NCC(c2cc(F)cc(F)c2)C1C(=O)Nc1ccc(F)cc1F (racemic) [Compound 278]
Plant response rating, Barnyardgrass [1, 10]: 80
Plant response rating, Barnyardgrass [1, 11]: 90
Plant response rating, Barnyardgrass [1, 12]: 80
Plant response rating, Barnyardgrass [1, 13]: 90
Plant response rating, Ryegrass, Italian [2, 14]: 0
Plant response rating, Ryegrass, Italian [2, 11]: 0
Plant response rating, Ryegrass, Italian [2, 12]: 0
Plant response rating, Ryegrass, Italian [2, 13]: 0
Plant response rating, Pigweed [3, 14]: 0
Plant response rating, Pigweed [3, 11]: 10
Plant response rating, Pigweed [3, 12]: 0
Plant response rating, Pigweed [3, 13]: 0
Plant response rating, Corn [4, 15]: 0
Plant response rating, Corn [4, 16]: 0
Plant response rating, Corn [4, 17]: 0
Plant response rating, Corn [4, 18]: 0
Corn plant response rating [4, 19]: 0
Corn plant response rating [4, 20]: 0
Plant response rating, Corn [4, 21]: 0
Plant response rating (scale of 0 to 100), Corn ([4]; Preemergence, 250 g ai/ha): 5
Plant response rating, Nutsedge, Yellow [5, 15]: 0
Plant response rating, Nutsedge, Yellow [5, 16]: 0
Plant response rating, Nutsedge, Yellow [5, 17]: 0
Plant response rating, Nutsedge, Yellow [5, 18]: 15
Nutsedge, Yellow plant response rating [5, 19]: 0
Nutsedge, Yellow plant response rating [5, 20]: 0
Plant response rating, Nutsedge, Yellow [5, 21]: 5
Plant response rating (scale of 0 to 100), Nutsedge, Yellow ([5]; Preemergence, 250 g ai/ha): 5
Plant response rating, Ragweed [6, 15]: 0
Plant response rating, Ragweed [6, 16]: 0
Plant response rating, Ragweed [6, 17]: 10
Plant response rating, Ragweed [6, 18]: 0
Ragweed plant response rating [6, 19]: 0
Ragweed plant response rating [6, 20]: 0
Plant response rating, Ragweed [6, 21]: 0
Plant response rating (scale of 0 to 100), Ragweed ([6]; Preemergence, 250 g ai/ha): 0
Plant response rating, Kochia [7, 22]: 0
Plant response rating, Kochia [7, 23]: 0
Plant response rating, Kochia [7, 24]: 0
Plant response rating, Kochia [7, 25]: 5
Plant response rating, Oat, Wild [8, 22]: 0
Plant response rating, Oat, Wild [8, 23]: 0
Plant response rating, Oat, Wild [8, 24]: 0
Plant response rating, Oat, Wild [8, 25]: 0
Plant response rating, Chickweed [9, 22]: 0
Plant response rating, Chickweed [9, 23]: 0
Plant response rating, Chickweed [9, 24]: 0
Plant response rating, Chickweed [9, 25]: 0

O=C1NCC(c2cccc(Cl)c2)C1C(=O)Nc1cccc(F)c1F (racemic) [Compound 275]
Plant response rating, Barnyardgrass [1, 10]: 90
Plant response rating, Barnyardgrass [1, 11]: 90
Plant response rating, Barnyardgrass [1, 12]: 90
Plant response rating, Barnyardgrass [1, 13]: 90
Plant response rating, Ryegrass, Italian [2, 14]: 30
Plant response rating, Ryegrass, Italian [2, 11]: 50
Plant response rating, Ryegrass, Italian [2, 12]: 30
Plant response rating, Ryegrass, Italian [2, 13]: 60
Plant response rating, Pigweed [3, 14]: 30
Plant response rating, Pigweed [3, 11]: 40
Plant response rating, Pigweed [3, 12]: 20
Plant response rating, Pigweed [3, 13]: 30
Plant response rating, Corn [4, 15]: 0
Plant response rating, Corn [4, 16]: 0
Plant response rating, Corn [4, 17]: 0
Plant response rating, Corn [4, 18]: 55
Corn plant response rating [4, 19]: 0
Corn plant response rating [4, 20]: 10
Plant response rating, Corn [4, 21]: 75
Plant response rating (scale of 0 to 100), Corn ([4]; Preemergence, 250 g ai/ha): 75
Plant response rating, Nutsedge, Yellow [5, 15]: 0
Plant response rating, Nutsedge, Yellow [5, 16]: 0
Plant response rating, Nutsedge, Yellow [5, 17]: 0
Plant response rating, Nutsedge, Yellow [5, 18]: 20
Nutsedge, Yellow plant response rating [5, 19]: 45
Nutsedge, Yellow plant response rating [5, 20]: 25
Plant response rating, Nutsedge, Yellow [5, 21]: 35
Plant response rating (scale of 0 to 100), Nutsedge, Yellow ([5]; Preemergence, 250 g ai/ha): 100
Plant response rating, Ragweed [6, 15]: 20
Plant response rating, Ragweed [6, 16]: 65
Plant response rating, Ragweed [6, 17]: 70
Plant response rating, Ragweed [6, 18]: 70
Ragweed plant response rating [6, 19]: 5
Ragweed plant response rating [6, 20]: 5
Plant response rating, Ragweed [6, 21]: 60
Plant response rating (scale of 0 to 100), Ragweed ([6]; Preemergence, 250 g ai/ha): 85
Plant response rating, Kochia [7, 22]: 70
Plant response rating, Kochia [7, 23]: 85
Plant response rating, Kochia [7, 24]: 85
Plant response rating, Kochia [7, 25]: 85
Plant response rating, Oat, Wild [8, 22]: 0
Plant response rating, Oat, Wild [8, 23]: 0
Plant response rating, Oat, Wild [8, 24]: 0
Plant response rating, Oat, Wild [8, 25]: 5
Plant response rating, Chickweed [9, 22]: 50
Plant response rating, Chickweed [9, 23]: 60
Plant response rating, Chickweed [9, 24]: 85
Plant response rating, Chickweed [9, 25]: 85
